Results published in ChEMBL document CHEMBL1201862, “PubChem BioAssay data set” (2004).
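Exposure lasted 48 hours, with cells grown in 96-well plates and compounds tested at five concentrations. The concentration for 50% growth inhibition is given as GI50.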 Activity calls are given as the source filed them. Cut-off read from the data, not from the text of the source: active = GI50 up to about 1.1 µM and inactive = higher.

Columns and labels:
Assay in all cases: NCI-60 cell line screen, 48 h
[1] = test system: UO-31
[2] = test system: TK-10
[3] = test system: COLO 205
[4] = test system: SNB-75
[5] = test system: SN12C
[6] = test system: ACHN
[7] = test system: MOLT-4
[8] = test system: A498
[9] = test system: NCI-H522
[10] = test system: NCI-H23
[11] = test system: HCC 2998
[12] = test system: A549
[13] = test system: Malme-3M
[14] = test system: LOX IMVI
[15] = test system: RPMI-8226
[16] = test system: EKVX
[17] = test system: OVCAR-8
[18] = test system: SK-MEL-2
[19] = test system: OVCAR-5
[20] = test system: HL-60

| Structure (SMILES) | GI50 [1] | GI50 [2] | GI50 [3] | GI50 [4] | GI50 [5] | GI50 [6] | GI50 [7] | GI50 [8] | GI50 [9] | GI50 [10] | GI50 [11] | GI50 [12] | GI50 [13] | GI50 [14] | GI50 [15] | GI50 [16] | GI50 [17] | GI50 [18] | GI50 [19] | GI50 [20] |
| --- | --- | --- | --- | --- | --- | --- | --- | --- | --- | --- | --- | --- | --- | --- | --- | --- | --- | --- | --- | --- |
| O=C(c1ccccc1)c1cccc(C(=O)c2ccccc2)c1 | 37.2 µM (inactive) | > 100 µM (inactive) | > 100 µM (inactive) | 82 µM (inactive) | > 100 µM (inactive) | > 100 µM (inactive) | 67.9 µM (inactive) | > 100 µM (inactive) | > 100 µM (inactive) | 98.2 µM (inactive) | > 100 µM (inactive) | > 100 µM (inactive) | 78.2 µM (inactive) | 33 µM (inactive) | > 100 µM (inactive) | > 100 µM (inactive) | > 100 µM (inactive) | > 100 µM (inactive) | – | – |
| Sc1ncnc2c1ncn2Cc1ccco1 | > 100 µM (inactive) | > 100 µM (inactive) | > 100 µM (inactive) | > 100 µM (inactive) | > 100 µM (inactive) | > 100 µM (inactive) | > 100 µM (inactive) | > 100 µM (inactive) | > 100 µM (inactive) | > 100 µM (inactive) | > 100 µM (inactive) | > 100 µM (inactive) | > 100 µM (inactive) | > 100 µM (inactive) | > 100 µM (inactive) | > 100 µM (inactive) | > 100 µM (inactive) | > 100 µM (inactive) | > 100 µM (inactive) | – |
| N#C/C(=C1/c2cc([N+](=O)[O-])ccc2-c2c1cc([N+](=O)[O-])cc2[N+](=O)[O-])N1CCCCC1 | > 100 µM (inactive) | > 100 µM (inactive) | > 100 µM (inactive) | 16.9 µM (inactive) | > 100 µM (inactive) | > 100 µM (inactive) | > 100 µM (inactive) | > 100 µM (inactive) | 46.6 µM (inactive) | 55.7 µM (inactive) | > 100 µM (inactive) | > 100 µM (inactive) | > 100 µM (inactive) | – | 17 µM (inactive) | > 100 µM (inactive) | > 100 µM (inactive) | > 100 µM (inactive) | > 100 µM (inactive) | – |
| CC(C)=CC(=O)N1CCN(C(=O)C=C(C)C)CC1 | > 100 µM (inactive) | > 100 µM (inactive) | – | > 100 µM (inactive) | > 100 µM (inactive) | > 100 µM (inactive) | > 100 µM (inactive) | > 100 µM (inactive) | > 100 µM (inactive) | > 100 µM (inactive) | > 100 µM (inactive) | > 100 µM (inactive) | – | > 100 µM (inactive) | > 100 µM (inactive) | > 100 µM (inactive) | > 100 µM (inactive) | – | > 100 µM (inactive) | > 100 µM (inactive) |
| CC(=O)O[C@H]1CCC2[C@@H]3CCC4=C(O)C(=O)C(C#N)C[C@]4(C)C3CC[C@@]21C (stereo not given in full) | 13.7 µM (inactive) | 18.2 µM (inactive) | 28.4 µM (inactive) | 12.6 µM (inactive) | 33.5 µM (inactive) | 26.7 µM (inactive) | 30.5 µM (inactive) | 0.361 µM (active) | – | 29.1 µM (inactive) | 29 µM (inactive) | 36.7 µM (inactive) | 36.1 µM (inactive) | 18.9 µM (inactive) | 12.4 µM (inactive) | 41.7 µM (inactive) | 44.5 µM (inactive) | 35 µM (inactive) | 75.9 µM (inactive) | 20 µM (inactive) |
| C/C(Cl)=N\OC(=O)Nc1ccc(C)cc1 | 17.4 µM (inactive) | 15.2 µM (inactive) | 16.2 µM (inactive) | 12.8 µM (inactive) | 15.7 µM (inactive) | 15.7 µM (inactive) | > 10 µM (inactive) | 18.8 µM (inactive) | – | 20.7 µM (inactive) | 16.9 µM (inactive) | 18.2 µM (inactive) | 16.9 µM (inactive) | 17.5 µM (inactive) | > 10 µM (inactive) | 18.3 µM (inactive) | 17.9 µM (inactive) | 18.2 µM (inactive) | 18.5 µM (inactive) | 2.22 µM (inactive) |
| CCOP(C)(=O)C(Cc1c[nH]c2ccccc12)C(=O)O (stereo not given) | > 100 µM (inactive) | – | > 100 µM (inactive) | > 100 µM (inactive) | > 100 µM (inactive) | > 100 µM (inactive) | > 100 µM (inactive) | > 100 µM (inactive) | > 100 µM (inactive) | – | > 100 µM (inactive) | > 100 µM (inactive) | > 100 µM (inactive) | – | > 100 µM (inactive) | > 100 µM (inactive) | > 100 µM (inactive) | > 100 µM (inactive) | > 100 µM (inactive) | > 100 µM (inactive) |
| CC(CN1CCN(CC(C)Nc2ccnc3cc(Cl)ccc23)CC1)Nc1ccnc2cc(Cl)ccc12 (stereo not given) | 22.7 µM (inactive) | 23.9 µM (inactive) | 14.4 µM (inactive) | 16.9 µM (inactive) | 22.4 µM (inactive) | 28.8 µM (inactive) | 9.38 µM (inactive) | 18 µM (inactive) | 20.7 µM (inactive) | 18.6 µM (inactive) | 16.6 µM (inactive) | 17.8 µM (inactive) | 21.2 µM (inactive) | 3.76 µM (inactive) | 9.79 µM (inactive) | 19 µM (inactive) | 18.9 µM (inactive) | – | 23.2 µM (inactive) | 8.93 µM (inactive) |
| CC(C)(C)OC(=O)CC(NC(=O)OC(C)(C)C)C(=O)NC(C(=O)O)C(O)c1ccccc1 (stereo not given) | > 100 µM (inactive) | > 100 µM (inactive) | > 100 µM (inactive) | > 100 µM (inactive) | – | > 100 µM (inactive) | 32.4 µM (inactive) | > 100 µM (inactive) | > 100 µM (inactive) | > 100 µM (inactive) | 14.3 µM (inactive) | > 100 µM (inactive) | 90.4 µM (inactive) | > 100 µM (inactive) | 70.1 µM (inactive) | > 100 µM (inactive) | > 100 µM (inactive) | > 100 µM (inactive) | > 100 µM (inactive) | – |
| COC(=O)/C=C/c1ccc2c(c1)CC1(Cc3ccccc3C1)C2 | > 100 µM (inactive) | > 100 µM (inactive) | > 100 µM (inactive) | – | > 100 µM (inactive) | > 100 µM (inactive) | 34.9 µM (inactive) | > 100 µM (inactive) | 56.9 µM (inactive) | 55.7 µM (inactive) | > 100 µM (inactive) | 0.0463 µM (active) | > 100 µM (inactive) | > 100 µM (inactive) | 60.7 µM (inactive) | 23.6 µM (inactive) | > 100 µM (inactive) | > 100 µM (inactive) | > 100 µM (inactive) | 30.5 µM (inactive) |
| COc1cc(OC)cc(Oc2nc3ccc(C(F)(F)F)cc3nc2-c2ccccc2)c1 | > 100 µM (inactive) | > 100 µM (inactive) | > 100 µM (inactive) | > 100 µM (inactive) | – | > 100 µM (inactive) | > 100 µM (inactive) | > 100 µM (inactive) | > 100 µM (inactive) | > 100 µM (inactive) | > 100 µM (inactive) | > 100 µM (inactive) | > 100 µM (inactive) | > 100 µM (inactive) | 52.5 µM (inactive) | > 100 µM (inactive) | > 100 µM (inactive) | – | > 100 µM (inactive) | > 100 µM (inactive) |
| O=C1N=CN=C2C=CC(Cl)=C(I)C12 (stereo not given) | 26.2 µM (inactive) | 80.9 µM (inactive) | > 100 µM (inactive) | – | > 100 µM (inactive) | 43.4 µM (inactive) | 67.1 µM (inactive) | 85.3 µM (inactive) | – | 46.2 µM (inactive) | > 100 µM (inactive) | > 100 µM (inactive) | > 100 µM (inactive) | 56.1 µM (inactive) | 56.2 µM (inactive) | 9.4 µM (inactive) | > 100 µM (inactive) | 81.5 µM (inactive) | > 100 µM (inactive) | 93.5 µM (inactive) |
| CC(=NNC(=S)Nc1ccccc1C)c1cccc(C(C)=NNC(=S)Nc2ccccc2C)n1 | 45.9 µM (inactive) | 23.7 µM (inactive) | 10.9 µM (inactive) | 2.36 µM (inactive) | 44.6 µM (inactive) | 4.15 µM (inactive) | 14.1 µM (inactive) | > 100 µM (inactive) | – | 65.3 µM (inactive) | > 100 µM (inactive) | 24.2 µM (inactive) | 15.5 µM (inactive) | 6.9 µM (inactive) | > 100 µM (inactive) | 76 µM (inactive) | 17.4 µM (inactive) | 74.3 µM (inactive) | > 100 µM (inactive) | 19.7 µM (inactive) |
| COC(=O)C1=Cc2c(OC)cc(OC)c(OC)c2[C@H](c2cc(OC)c(OC)cc2OC)C1C(=O)OC (stereo not given in full) | > 100 µM (inactive) | > 100 µM (inactive) | > 100 µM (inactive) | 57.8 µM (inactive) | > 100 µM (inactive) | > 100 µM (inactive) | > 100 µM (inactive) | > 100 µM (inactive) | > 100 µM (inactive) | > 100 µM (inactive) | > 100 µM (inactive) | > 100 µM (inactive) | > 100 µM (inactive) | > 100 µM (inactive) | > 100 µM (inactive) | > 100 µM (inactive) | > 100 µM (inactive) | – | > 100 µM (inactive) | 28.8 µM (inactive) |
| CC(C)[C@H](CCl)NC(=O)c1cccc(C(=O)N[C@H](CCl)C(C)C)n1 (stereo in doubt) | > 100 µM (inactive) | > 100 µM (inactive) | > 100 µM (inactive) | > 100 µM (inactive) | > 100 µM (inactive) | > 100 µM (inactive) | > 100 µM (inactive) | 78.7 µM (inactive) | > 100 µM (inactive) | > 100 µM (inactive) | > 100 µM (inactive) | > 100 µM (inactive) | > 100 µM (inactive) | > 100 µM (inactive) | > 100 µM (inactive) | > 100 µM (inactive) | – | – | > 100 µM (inactive) | > 100 µM (inactive) |
